What was measured:
[1] = biological target: Vascular endothelial growth factor receptor 2 (Homo sapiens, UniProt P35968); test: In Vitro c-Met and VEGFR-2 Enzyme Assay; conditions: pH 7.4; 37 °C
Procedure: (§1) Briefly, 20 μg/mL poly (Glu,Tyr) 4:1 (Sigma) was pre-coated in 96-well plates as a substrate. A 50 μL aliquot of 10 μmol/L ATP solution diluted in kinase reaction buffer (50 mmol/L HEPES [pH 7.4], 50 mmol/L MgCl2, 0.5 mmol/L MnCl2, 0.2 mmol/L Na3VO4, and 1 mmol/L DTT) was added to each well; 1 μL of various concentrations of indicated compounds diluted in 1% DMSO (v/v) (Sigma) was then added to each reaction well. DMSO (1%, v/v) was used as the negative control. The kinase reaction was initiated by the addition of purified tyrosine kinase proteins diluted in 49 μL of kinase reaction buffer. After incubation for 60 min at 37 °C, the plate was washed three times with phosphate-buffered saline (PBS) containing 0.1% Tween 20 (T-PBS). Anti-phosphotyrosine (PY99) antibody was then added. After a 30-min incubation at 37 °C, the plate was washed three times, and horseradishperoxidase-conjugated goat anti-mouse IgG was added. The plate was then incubated at 37 °C for 30 min and washed 3 times. A 100 μL aliquot of a solution containing 0.03% H2O2 and 2 mg/ml ophenylenediamine in 0.1 mol/L citrate buffer (pH 5.5) was added. The reaction was terminated by the addition of 50 μL of 2 mol/L H2SO4 as the color changed, and the plate was analyzed using a multi-well spectrophotometer (SpectraMAX 190, Molecular Devices) at 490 nm.

[2] = biological target: Hepatocyte growth factor receptor (Homo sapiens, UniProt P08581); test: In Vitro c-Met and VEGFR-2 Enzyme Assay; conditions: pH 7.4; 37 °C
Sequence of Hepatocyte growth factor receptor (P08581 whole entry): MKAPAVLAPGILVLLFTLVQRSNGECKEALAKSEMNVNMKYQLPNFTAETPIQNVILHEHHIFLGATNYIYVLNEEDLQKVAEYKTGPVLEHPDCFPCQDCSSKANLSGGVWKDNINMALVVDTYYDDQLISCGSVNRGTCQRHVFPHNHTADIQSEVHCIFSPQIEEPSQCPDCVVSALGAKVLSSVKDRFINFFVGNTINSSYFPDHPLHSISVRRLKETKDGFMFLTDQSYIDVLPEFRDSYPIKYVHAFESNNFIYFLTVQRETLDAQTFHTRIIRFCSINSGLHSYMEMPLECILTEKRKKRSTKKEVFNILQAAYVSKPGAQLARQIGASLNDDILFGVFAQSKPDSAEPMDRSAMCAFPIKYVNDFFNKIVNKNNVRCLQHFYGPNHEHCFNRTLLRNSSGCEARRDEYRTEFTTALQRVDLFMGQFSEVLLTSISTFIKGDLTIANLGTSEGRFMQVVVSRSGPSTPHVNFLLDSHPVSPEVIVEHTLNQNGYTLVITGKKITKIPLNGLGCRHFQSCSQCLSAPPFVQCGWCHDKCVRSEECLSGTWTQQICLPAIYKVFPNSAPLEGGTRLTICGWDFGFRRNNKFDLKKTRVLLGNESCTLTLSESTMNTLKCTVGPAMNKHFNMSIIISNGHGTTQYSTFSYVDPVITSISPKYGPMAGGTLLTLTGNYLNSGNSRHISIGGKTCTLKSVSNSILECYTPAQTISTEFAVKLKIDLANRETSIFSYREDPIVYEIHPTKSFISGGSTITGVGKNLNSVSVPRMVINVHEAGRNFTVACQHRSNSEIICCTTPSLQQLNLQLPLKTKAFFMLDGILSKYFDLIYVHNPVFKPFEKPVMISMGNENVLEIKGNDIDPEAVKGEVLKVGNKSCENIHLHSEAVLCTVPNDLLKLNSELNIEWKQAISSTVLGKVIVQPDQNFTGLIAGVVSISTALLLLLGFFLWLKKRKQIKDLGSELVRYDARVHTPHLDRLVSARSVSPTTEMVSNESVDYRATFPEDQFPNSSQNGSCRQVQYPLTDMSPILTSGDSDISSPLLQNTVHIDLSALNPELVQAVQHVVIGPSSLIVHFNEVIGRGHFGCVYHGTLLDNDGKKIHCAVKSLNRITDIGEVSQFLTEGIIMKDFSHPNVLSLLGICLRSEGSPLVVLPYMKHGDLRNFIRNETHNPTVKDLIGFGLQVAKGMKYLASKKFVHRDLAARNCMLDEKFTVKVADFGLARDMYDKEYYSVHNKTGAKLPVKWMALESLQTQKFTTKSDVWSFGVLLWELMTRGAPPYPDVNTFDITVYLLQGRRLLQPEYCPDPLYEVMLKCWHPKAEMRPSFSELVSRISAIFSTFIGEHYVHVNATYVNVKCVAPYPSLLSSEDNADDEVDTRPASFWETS
Procedure: as §1

Sequence of Vascular endothelial growth factor receptor 2 (P35968 whole entry): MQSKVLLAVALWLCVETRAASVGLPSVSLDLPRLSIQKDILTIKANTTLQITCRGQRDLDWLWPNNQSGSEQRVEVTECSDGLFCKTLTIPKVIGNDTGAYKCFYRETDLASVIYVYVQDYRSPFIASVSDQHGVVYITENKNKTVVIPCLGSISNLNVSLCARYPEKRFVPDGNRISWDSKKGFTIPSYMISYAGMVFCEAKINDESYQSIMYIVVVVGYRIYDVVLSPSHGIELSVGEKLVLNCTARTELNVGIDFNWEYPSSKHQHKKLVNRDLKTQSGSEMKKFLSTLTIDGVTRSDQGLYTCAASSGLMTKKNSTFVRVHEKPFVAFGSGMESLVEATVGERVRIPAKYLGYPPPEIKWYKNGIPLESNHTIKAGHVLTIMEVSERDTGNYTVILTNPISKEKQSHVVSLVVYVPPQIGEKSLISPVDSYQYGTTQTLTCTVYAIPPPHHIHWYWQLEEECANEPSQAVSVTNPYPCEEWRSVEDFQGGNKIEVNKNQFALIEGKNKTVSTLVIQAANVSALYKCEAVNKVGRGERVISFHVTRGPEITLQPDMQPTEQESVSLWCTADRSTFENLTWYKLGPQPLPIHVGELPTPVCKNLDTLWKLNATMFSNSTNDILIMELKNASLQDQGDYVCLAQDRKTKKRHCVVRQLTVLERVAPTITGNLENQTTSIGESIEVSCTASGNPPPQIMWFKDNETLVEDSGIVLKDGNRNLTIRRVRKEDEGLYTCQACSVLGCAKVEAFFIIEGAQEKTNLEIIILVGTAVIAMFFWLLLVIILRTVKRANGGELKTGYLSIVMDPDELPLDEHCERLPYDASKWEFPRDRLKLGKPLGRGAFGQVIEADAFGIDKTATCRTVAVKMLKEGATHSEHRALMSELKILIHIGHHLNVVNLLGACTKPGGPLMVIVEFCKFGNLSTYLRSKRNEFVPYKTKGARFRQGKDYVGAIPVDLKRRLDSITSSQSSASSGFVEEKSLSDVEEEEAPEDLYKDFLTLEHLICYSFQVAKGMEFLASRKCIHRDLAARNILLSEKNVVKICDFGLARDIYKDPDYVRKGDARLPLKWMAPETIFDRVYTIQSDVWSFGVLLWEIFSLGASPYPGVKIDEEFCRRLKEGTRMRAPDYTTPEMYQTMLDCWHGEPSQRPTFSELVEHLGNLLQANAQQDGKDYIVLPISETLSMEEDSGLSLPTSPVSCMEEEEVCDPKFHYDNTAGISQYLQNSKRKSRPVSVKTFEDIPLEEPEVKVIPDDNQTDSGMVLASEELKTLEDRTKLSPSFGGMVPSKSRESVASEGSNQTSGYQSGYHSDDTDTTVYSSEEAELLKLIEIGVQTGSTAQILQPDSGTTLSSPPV

SMILES | IC50 [1] | IC50 [2]
CCN1CCN(C(=O)c2cc(Oc3ccc(NC(=O)c4c(C)n(C)n(-c5ccccc5)c4=O)cc3F)ccn2)CC1 [N-(4-((2-(4-ethylpiperazine-1-carbonyl)pyridin-4-yl)oxy-3-fluorophenyl)-1,5-dimethyl-3-oxo-2-phenyl-2,3-dihydro-1H-pyrazole-4-carboxamide (9j)] | > 1000 nM | 970 nM
Cc1c(C(=O)Nc2ccc(Oc3ccnc(-c4nncn4CCCN4CCOCC4)c3)c(F)c2)c(=O)n(-c2ccccc2)n1C [N-(3-fluoro-4-((2-(4-(3-morpholinopropyl)-4H-1,2,4-triazol-3-yl)pyridin-4-yl)oxy)phenyl)-1,5-dimethyl-3-oxo-2-phenyl-2,3-dihydro-1H-pyrazole-4-carboxamide (12c)] | 520 nM | 170 nM
Cc1c(C(=O)Nc2ccc(Oc3ccnc(C(=O)NCCN4CCOCC4)c3)c(F)c2)c(=O)n(-c2ccccc2)n1C [4-(4-(1,5-dimethyl-3-oxo-2-phenyl-2,3-dihydro-1H-pyrazole-4-carboxamido)-2-fluorophenoxy)-N-(2-morpholinoethyl)picolinamide (9l)] | 860 nM | 510 nM
Cc1c(C(=O)Nc2ccc(Oc3ccnc(C(=O)N4CCC(N5CCCCC5)CC4)c3)c(F)c2)c(=O)n(-c2ccccc2)n1C [N-(4-((2-([1,4'-bipiperidine]-1'-carbonyl)pyridin-4-yl)oxy)-3-fluorophenyl)-1,5-dimethyl-3-oxo-2-phenyl-2,3-dihydro-1H-pyrazole-4-carboxamide (9o)] | 780 nM | 330 nM

Continued by falling IC50 [1], values first:

IC50 [1] | IC50 [2] | SMILES
840 nM | 250 nM | Cc1c(C(=O)Nc2ccc(Oc3ccnc(C(=O)NCCCN4CCOCC4)c3)c(F)c2)c(=O)n(-c2ccccc2)n1C [4-(4-(1,5-dimethyl-3-oxo-2-phenyl-2,3-dihydro-1H-pyrazole-4-carboxamido)-2-fluorophenoxy)-N-(3-morpholinopropyl) picolinamide (9h)]
370 nM | 150 nM | Cc1c(C(=O)Nc2ccc(Oc3ccnc(-c4nncn4CCCN(C)C)c3)c(F)c2)c(=O)n(-c2ccccc2)n1C [N-(3-fluoro-4-((2-(4-(3-dimethylaminopropyl)-4H-1,2,4-triazol-3-yl)pyridin-4-yl)oxy)phenyl)-1,5-dimethyl-3-oxo-2-phenyl-2,3-dihydro-1H-pyrazole-4-carboxamide (12b)]
190 nM | – | Cc1c(C(=O)Nc2ccc(Oc3ccnc(-c4nncn4CCCN4CCN(C)CC4)c3)c(F)c2)c(=O)n(-c2ccccc2)n1C [N-(3-fluoro-4-((2-(4-(3-(4-methylpiperazin-1-yl)propyl)-4H-1,2,4-triazol-3-yl)pyridin-4-yl)oxy)phenyl)-1,5-dimethyl-3-oxo-2-phenyl-2,3-dihydro-1H-pyrazole-4-carboxamide (12d)]
